# In ChEMBL document CHEMBL3885881, “DrugMatrix”:
# Organism: Rattus norvegicus
# Test: DrugMatrix - Regimen: Daily Repeat
# Type: toxicity, organism-based, Sprague-Dawley
# Set-up: regimen Daily Repeat, gender Male, age 6-8 weeks
# Details: in vivo, po, route oral GAVAGE, vehicle 100 % SALINE; for ABSOLUTE BASOPHIL / ABSOLUTE EOSINOPHIL / ABSOLUTE LYMPHOCYTE / ABSOLUTE MONOCYTE / ABSOLUTE SEGMENTED NEUTROPHIL / BASOPHIL / EOSINOPHIL / ERYTHROCYTE COUNT / HEMATOCRIT / HEMOGLOBIN / LEUKOCYTE COUNT / LYMPHOCYTE / MEAN CORPUSCULAR HEMOGLOBIN / MEAN CORPUSCULAR HEMOGLOBIN CONCENTRATION / MEAN CORPUSCULAR VOLUME / MONOCYTE / NEUTROPHIL / NUCLEATED RED BLOOD CELLS / PLATELET COUNT: tissue Blood; for ALANINE AMINOTRANSFERASE / ALBUMIN / ALKALINE PHOSPHATASE / ASPARTATE AMINOTRANSFERASE / BLOOD UREA NITROGEN / CARBON DIOXIDE / CHLORIDE / CHOLESTEROL / CREATINE PHOSPHOKINASE / CREATININE / GLUCOSE / LACTATE DEHYDROGENASE / LIPASE / PHOSPHORUS / POTASSIUM / SODIUM / TOTAL BILIRUBIN / TOTAL PROTEIN / URIC ACID: tissue Plasma
# [1] = 11 mg/kg, 120 h, dose level High, time 5 day
# [2] = […], 72 h, dose 2.8 mg/Kg, dose level Low, time 3 day
# [3] = […], 120 h, dose 2.8 mg/Kg, dose level Low, time 5 day
structure (smiles),measurement,setting,value
Cc1cc(CC(=O)O)n(C)c1C(=O)c1ccc(Cl)cc1 [ZOMEPIRAC],ABSOLUTE BASOPHIL,[1],0 CELLS/uL
same,ABSOLUTE EOSINOPHIL,[1],95 CELLS/uL
same,ABSOLUTE LYMPHOCYTE,[1],12621.33 CELLS/uL
same,ABSOLUTE MONOCYTE,[1],94.67 CELLS/uL
same,ABSOLUTE SEGMENTED NEUTROPHIL,[1],855.67 CELLS/uL
same,BASOPHIL,[1],0%
same,EOSINOPHIL,[1],0.67%
same,ERYTHROCYTE COUNT,[1],5.5 x10E6/uL
same,HEMATOCRIT,[1],34.03%
same,HEMOGLOBIN,[1],13.2 G/DL
same,LEUKOCYTE COUNT,[1],13.67 x10E3/uL
same,LYMPHOCYTE,[1],92.33%
same,MEAN CORPUSCULAR HEMOGLOBIN,[1],24.13 pg
same,MEAN CORPUSCULAR HEMOGLOBIN CONCENTRATION,[1],38.87 G/DL
same,MEAN CORPUSCULAR VOLUME,[1],62.1 fL
same,MONOCYTE,[1],0.67%
same,NEUTROPHIL,[1],6.33%
same,NUCLEATED RED BLOOD CELLS,[1],0 /100WBC
same,PLATELET COUNT,[1],1240 x10E3/uL
same,ALANINE AMINOTRANSFERASE,[1],49.33 u/L
same,ALBUMIN,[1],3.77 G/DL
same,ALKALINE PHOSPHATASE,[1],252.67 u/L
same,ASPARTATE AMINOTRANSFERASE,[1],97.67 u/L
same,BLOOD UREA NITROGEN,[1],15.67 mg/dL
same,CARBON DIOXIDE,[1],24 mmol/L
same,CHLORIDE,[1],105.33 MEQ/L
same,CHOLESTEROL,[1],76.67 mg/dL
same,CREATINE PHOSPHOKINASE,[1],395.67 u/L
same,CREATININE,[1],0.17 mg/dL
same,GLUCOSE,[1],143.33 mg/dL
same,LACTATE DEHYDROGENASE,[1],595 u/L
same,LIPASE,[1],8.67 u/L
same,PHOSPHORUS,[1],11.83 mg/dL
same,POTASSIUM,[1],6.93 MEQ/L
same,SODIUM,[1],148.57 MEQ/L
same,TOTAL BILIRUBIN,[1],0.13 mg/dL
same,TOTAL PROTEIN,[1],5.87 G/DL
same,URIC ACID,[1],2.33 mg/dL
same,ABSOLUTE BASOPHIL,[2],0 CELLS/uL
same,ABSOLUTE EOSINOPHIL,[2],111.67 CELLS/uL
same,ABSOLUTE LYMPHOCYTE,[2],15209 CELLS/uL
same,ABSOLUTE MONOCYTE,[2],151.67 CELLS/uL
same,ABSOLUTE SEGMENTED NEUTROPHIL,[2],1061 CELLS/uL
same,BASOPHIL,[2],0%
same,EOSINOPHIL,[2],0.67%
same,ERYTHROCYTE COUNT,[2],5.59 x10E6/uL
same,HEMATOCRIT,[2],34.1%
same,HEMOGLOBIN,[2],13.53 G/DL
same,LEUKOCYTE COUNT,[2],16.53 x10E3/uL
same,LYMPHOCYTE,[2],91.33%
same,MEAN CORPUSCULAR HEMOGLOBIN,[2],24.2 pg
same,MEAN CORPUSCULAR HEMOGLOBIN CONCENTRATION,[2],39.7 G/DL
same,MEAN CORPUSCULAR VOLUME,[2],60.97 fL
same,MONOCYTE,[2],1%
same,NEUTROPHIL,[2],7%
same,NUCLEATED RED BLOOD CELLS,[2],0 /100WBC
same,PLATELET COUNT,[2],1145.33 x10E3/uL
same,ALANINE AMINOTRANSFERASE,[2],50.67 u/L
same,ALBUMIN,[2],4 G/DL
same,ALKALINE PHOSPHATASE,[2],259 u/L
same,ASPARTATE AMINOTRANSFERASE,[2],76.67 u/L
same,BLOOD UREA NITROGEN,[2],14.67 mg/dL
same,CARBON DIOXIDE,[2],23 mmol/L
same,CHLORIDE,[2],102 MEQ/L
same,CHOLESTEROL,[2],65.33 mg/dL
same,CREATINE PHOSPHOKINASE,[2],362.33 u/L
same,CREATININE,[2],0.2 mg/dL
same,GLUCOSE,[2],180 mg/dL
same,LACTATE DEHYDROGENASE,[2],137 u/L
same,LIPASE,[2],12.33 u/L
same,PHOSPHORUS,[2],13.07 mg/dL
same,POTASSIUM,[2],6.11 MEQ/L
same,SODIUM,[2],141.93 MEQ/L
same,TOTAL BILIRUBIN,[2],0.2 mg/dL
same,TOTAL PROTEIN,[2],5.77 G/DL
same,URIC ACID,[2],1.6 mg/dL
same,ABSOLUTE BASOPHIL,[3],0 CELLS/uL
same,ABSOLUTE EOSINOPHIL,[3],70.67 CELLS/uL
same,ABSOLUTE LYMPHOCYTE,[3],13627.67 CELLS/uL
same,ABSOLUTE MONOCYTE,[3],0 CELLS/uL
same,ABSOLUTE SEGMENTED NEUTROPHIL,[3],1235 CELLS/uL
same,BASOPHIL,[3],0%
same,EOSINOPHIL,[3],0.33%
same,ERYTHROCYTE COUNT,[3],5.81 x10E6/uL
same,HEMATOCRIT,[3],35.67%
same,HEMOGLOBIN,[3],14.07 G/DL
same,LEUKOCYTE COUNT,[3],14.93 x10E3/uL
same,LYMPHOCYTE,[3],91.33%
same,MEAN CORPUSCULAR HEMOGLOBIN,[3],24.23 pg
same,MEAN CORPUSCULAR HEMOGLOBIN CONCENTRATION,[3],39.47 G/DL
same,MEAN CORPUSCULAR VOLUME,[3],61.53 fL
same,MONOCYTE,[3],0%
same,NEUTROPHIL,[3],8.33%
same,NUCLEATED RED BLOOD CELLS,[3],0 /100WBC
same,PLATELET COUNT,[3],1274.67 x10E3/uL
same,ALANINE AMINOTRANSFERASE,[3],59.33 u/L
same,ALBUMIN,[3],4.17 G/DL
same,ALKALINE PHOSPHATASE,[3],331 u/L
same,ASPARTATE AMINOTRANSFERASE,[3],103.33 u/L
same,BLOOD UREA NITROGEN,[3],16.33 mg/dL
same,CARBON DIOXIDE,[3],22.67 mmol/L
same,CHLORIDE,[3],104.67 MEQ/L
same,CHOLESTEROL,[3],64.33 mg/dL
same,CREATINE PHOSPHOKINASE,[3],532.33 u/L
same,CREATININE,[3],0.2 mg/dL
same,GLUCOSE,[3],159.67 mg/dL
same,LACTATE DEHYDROGENASE,[3],749.67 u/L
same,LIPASE,[3],10 u/L
same,PHOSPHORUS,[3],12.53 mg/dL
same,POTASSIUM,[3],6.9 MEQ/L
same,SODIUM,[3],147.37 MEQ/L
same,TOTAL BILIRUBIN,[3],0.2 mg/dL
same,TOTAL PROTEIN,[3],6.2 G/DL
same,URIC ACID,[3],2 mg/dL
